Test results reported in patent US9597310B2, “Indanyloxydihydrobenzofuranylacetic acids” (Boehringer Ingelheim International GmbH, priority 2012, dated 2017).

Experiments:
human GPR40 receptor = human GPR40 receptor (Homo sapiens (Human), UniProt O14842); assay: IP1 accumulation measurements using the IPOne assay system; assay type: cell-based; details: 1321N1 cells stably expressing human GPR40 receptor, 1 h stimulation
Procedure: IP1 accumulation measurements using the IPOne assay system—1321N1 cells stably expressing human GPR40 receptor (Euroscreen, Belgium) are seeded 24 h before the assay in white 384-well plates in culture medium containing 10% FCS, 1% Na-Pyruvate and 400 μg/mL G418. IP1 is assayed according to the manufacturer's description (Cisbio Bioassays, France). In brief, the assay is started by substitution of the culture medium by stimulation buffer (Hepes 10 mM, CaCl2 1 mM, MgCl2 0.5 mM, KCl 4.2 mM, NaCl 146 mM, glucose 5.5 mM and LiCl 50 mM, pH 7.4). Cells are stimulated for 1 h at 37° C., 5% CO2 by addition of the compounds that are diluted in stimulation buffer containing LiCl. Assays are stopped by adding HTRF-conjugates (IP1-d2 and Anti-IP1 cryptate Tb) and lysis buffer, provided by the manufacturer. After an incubation time of 1 h at room temperature plates are measured using an EnVision™, Perkin Elmer. The obtained fluorescence ratios at 665/615 […] are then used to calculate the pEC50 values using Assay Explorer 3.3 Software (Accelrys, Inc.) by interpolation using an IP1 reference curve and subsequent sigmoidal curve fitting allowing for a variable hill slope.

[1] = Chemical stability (degradation kinetics) in acidic aqueous media, HPLC recovery rate; assay type: physicochemical; details: pH value of ca. 1.2, acetonitrile/0.1 M aqueous HCl (2:3), 37° C.
Procedure: Degradation kinetics is used to simulate chemical stability of compounds in the acidic part of the gastro intestinal tract.
The chemical stability of the compounds of the invention at pH value of ca. 1.2 is determined as follows:
Compound is dissolved in an HPLC vial either in a mixture of acetonitrile/0.1 M aqueous HCl (2:3; pH ca. 1.2) or in a mixture of acetonitrile/McIlvaine buffer pH 7.4 (2:3) to get a concentration of approximately 0.25 mg/ml. The vial was then transferred into an HPLC autosampler system and maintained at a temperature of 37° C. A first sample is taken and injected immediately into a standard HPLC system with a UV DAD detector. Further samples are injected after 2, 4, 6, 8 and 10 hours. Degradation of the compound is measured by determining the recovery rate of compound [%] for each injection using an HPLC standard gradient method. Therefore the peak area of the main peak for the first injection (AUt0) is determined and set as 100%. Peak area of the main peak is determined also for the further injections (AUtn, n=2, 4, 6, 8, 10) and expressed as fraction of […] [%].

human GPR40 receptor, sequence (O14842 whole entry): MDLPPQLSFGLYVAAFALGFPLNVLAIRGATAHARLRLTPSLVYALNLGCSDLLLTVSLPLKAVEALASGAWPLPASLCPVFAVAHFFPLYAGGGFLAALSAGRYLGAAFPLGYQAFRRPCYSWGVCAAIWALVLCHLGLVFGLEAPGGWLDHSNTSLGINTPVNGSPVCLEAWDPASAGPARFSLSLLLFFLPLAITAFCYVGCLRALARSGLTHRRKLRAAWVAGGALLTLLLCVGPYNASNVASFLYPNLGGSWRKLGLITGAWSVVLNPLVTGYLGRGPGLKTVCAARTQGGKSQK

| SMILES | EC50 (human GPR40 receptor) | Recovery rate after 2 h [1] |
| --- | --- | --- |
| COCCOc1ccc(Oc2ccc(F)c3c2CC[C@H]3Oc2ccc3c(c2)OC[C@H]3CC(=O)O)cc1 [Example 1, [(S)-6-{(R)-7-Fluoro-4-[4-(2-methoxy-ethoxy)-phenoxy]-indan-1-yloxy}-2,3-dihydro-benzofuran-3-yl]-acetic acid] | 7 nM | 97.5% |
| CC(C)(O)CCOc1ccc(Oc2ccc(F)c3c2CC[C@H]3Oc2ccc3c(c2)OC[C@H]3CC(=O)O)cc1 [Example 2, [(S)-6-{(R)-7-Fluoro-4-[4-(3-hydroxy-3-methyl-butoxy)-phenoxy]-indan-1-yloxy}-2,3-dihydro-benzofuran-3-yl]-acetic acid] | 5 nM | >98% |
| CC(C)(O)COc1ccc(Oc2ccc(F)c3c2CC[C@H]3Oc2ccc3c(c2)OC[C@H]3CC(=O)O)cc1 [Example 3, [(S)-6-{(R)-7-Fluoro-4-[4-(2-hydroxy-2-methyl-propoxy)-phenoxy]-indan-1-yloxy}-2,3-dihydro-benzofuran-3-yl]-acetic acid] | 13 nM | 97.5% |
| CC(=O)Nc1cccc(Oc2ccc(F)c3c2CC[C@H]3Oc2ccc3c(c2)OC[C@H]3CC(=O)O)c1 [Example 6, {(S)-6-[(R)-4-(3-Acetylamino-phenoxy)-7-fluoro-indan-1-yloxy]-2,3-dihydro-benzofuran-3-yl}-acetic acid] | 8 nM | >98% |
| O=C(O)C[C@@H]1COc2cc(O[C@@H]3CCc4c(Oc5ccc(C(=O)N6CCCC6)cc5)ccc(F)c43)ccc21 [Example 9, [(S)-6-{(R)-7-Fluoro-4-[4-(pyrrolidine-1-carbonyl)-phenoxy]-indan-1-yloxy}-2,3-dihydro-benzofuran-3-yl]-acetic acid] | 18 nM | >99% |
| O=C(O)C[C@@H]1COc2cc(O[C@@H]3CCc4c(Oc5ccc6c(c5)CCO6)ccc(F)c43)ccc21 [Example 11, {(S)-6-[(R)-4-(2,3-Dihydro-benzofuran-5-yloxy)-7-fluoro-indan-1-yloxy]-2,3-dihydro-benzofuran-3-yl}-acetic acid] | 6 nM | 96.5% |
| CCNC(=O)c1ccc(Oc2ccc(F)c3c2CC[C@H]3Oc2ccc3c(c2)OC[C@H]3CC(=O)O)cc1 [Example 12, {(S)-6-[(R)-4-(4-Ethylcarbamoyl-phenoxy)-7-fluoro-indan-1-yloxy]-2,3-dihydro-benzofuran-3-yl}-acetic acid] | 18 nM | >99% |
| N#Cc1cc(CN2CCOCC2)ccc1Oc1ccc(F)c2c1CC[C@H]2Oc1ccc2c(c1)OC[C@H]2CC(=O)O [Example 70, ((S)-6-{(R)-4-[2-Cyano-4-(morpholin-4-ylmethyl)phenoxy]-7-fluoro-indan-1-yloxy}-2,3-dihydrobenzofuran-3-yl)-acetic acid] | 44 nM | – |
| O=C(O)C[C@@H]1COc2cc(OC3CCc4ccccc43)ccc21 (some centres unmarked) [XX, reference compound] | – | <5% |
| CC(C)c1cccc2c1CC[C@H]2Oc1ccc2c(c1)OC[C@H]2CC(=O)O [XXI, reference compound] | – | <5% |
